Counter-ions that a name gives are not always drawn.
Legend:
IκBα-kinase complex = biological target: T1, IκBα-kinase complex (Homo sapiens, UniProt O14920+O15111); test: biochemical; conditions: activated kinase complex from HeLa S3 cell-extracts S100 fraction; 30 minutes pre-incubation at 25°C; biotinylated peptide substrate; read-out: IkB-kinase IC50
T1 construct: IKBα kinase complex was prepared by first diluting 10 mL of HeLa S3 cell-extracts S100 fraction; endogenous in cells; host or cells: HeLa S3 (S100 fraction, 40% ammonium sulfate cut, Superose-6 fractions at about 670 kDa)
T1 sequence (O14920 whole entry): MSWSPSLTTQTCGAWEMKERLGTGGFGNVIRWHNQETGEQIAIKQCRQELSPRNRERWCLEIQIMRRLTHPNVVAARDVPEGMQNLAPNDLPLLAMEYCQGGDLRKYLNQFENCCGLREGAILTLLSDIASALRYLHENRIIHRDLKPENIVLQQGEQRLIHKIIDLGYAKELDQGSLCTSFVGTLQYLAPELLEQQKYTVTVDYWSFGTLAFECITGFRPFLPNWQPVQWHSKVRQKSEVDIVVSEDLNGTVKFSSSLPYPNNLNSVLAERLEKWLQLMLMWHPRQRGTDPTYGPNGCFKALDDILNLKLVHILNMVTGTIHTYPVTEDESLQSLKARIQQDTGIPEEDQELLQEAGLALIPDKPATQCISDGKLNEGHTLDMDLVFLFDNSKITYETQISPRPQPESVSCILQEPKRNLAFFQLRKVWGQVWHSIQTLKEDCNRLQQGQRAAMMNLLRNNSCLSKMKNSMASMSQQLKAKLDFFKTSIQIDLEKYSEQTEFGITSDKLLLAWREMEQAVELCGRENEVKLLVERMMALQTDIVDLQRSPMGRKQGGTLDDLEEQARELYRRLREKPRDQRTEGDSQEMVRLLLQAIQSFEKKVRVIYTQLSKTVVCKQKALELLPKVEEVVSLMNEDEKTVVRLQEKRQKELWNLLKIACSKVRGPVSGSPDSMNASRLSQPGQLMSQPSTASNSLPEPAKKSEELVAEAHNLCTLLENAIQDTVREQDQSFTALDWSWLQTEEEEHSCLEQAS
T1 sequence (O15111 whole entry): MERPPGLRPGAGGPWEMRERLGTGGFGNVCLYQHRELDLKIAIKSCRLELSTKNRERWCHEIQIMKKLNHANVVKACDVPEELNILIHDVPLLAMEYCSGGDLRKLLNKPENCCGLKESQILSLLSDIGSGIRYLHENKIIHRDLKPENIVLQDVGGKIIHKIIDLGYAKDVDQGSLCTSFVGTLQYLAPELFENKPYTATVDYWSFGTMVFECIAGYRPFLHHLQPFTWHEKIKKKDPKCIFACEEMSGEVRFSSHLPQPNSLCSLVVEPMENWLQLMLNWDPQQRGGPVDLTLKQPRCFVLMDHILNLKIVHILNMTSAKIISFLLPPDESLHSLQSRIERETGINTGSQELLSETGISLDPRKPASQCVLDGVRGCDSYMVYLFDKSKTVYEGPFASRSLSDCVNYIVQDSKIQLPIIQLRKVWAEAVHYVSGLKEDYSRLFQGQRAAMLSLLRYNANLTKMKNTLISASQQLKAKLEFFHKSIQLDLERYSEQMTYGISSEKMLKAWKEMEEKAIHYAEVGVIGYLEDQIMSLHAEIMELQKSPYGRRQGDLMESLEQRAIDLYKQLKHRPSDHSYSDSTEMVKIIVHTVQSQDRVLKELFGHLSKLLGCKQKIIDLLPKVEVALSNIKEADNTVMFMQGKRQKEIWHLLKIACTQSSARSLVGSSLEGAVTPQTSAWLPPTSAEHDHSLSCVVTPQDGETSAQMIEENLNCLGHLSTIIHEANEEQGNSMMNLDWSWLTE
T1 sequence (Q9Y6K9 whole entry partner): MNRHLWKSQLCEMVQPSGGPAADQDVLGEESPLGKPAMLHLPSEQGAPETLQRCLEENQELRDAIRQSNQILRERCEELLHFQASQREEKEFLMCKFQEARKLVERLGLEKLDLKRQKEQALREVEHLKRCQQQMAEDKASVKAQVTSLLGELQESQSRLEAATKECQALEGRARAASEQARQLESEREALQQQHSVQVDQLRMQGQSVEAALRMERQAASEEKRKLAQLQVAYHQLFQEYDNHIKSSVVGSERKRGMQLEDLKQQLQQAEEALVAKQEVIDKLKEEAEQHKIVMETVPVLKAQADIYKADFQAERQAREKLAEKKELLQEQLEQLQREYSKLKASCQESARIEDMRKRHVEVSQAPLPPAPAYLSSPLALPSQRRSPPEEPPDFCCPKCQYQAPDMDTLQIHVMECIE

[1] = tested on: mouse heterotopic cardiac transplant (BALB/c->C57BL/6 or B6/129); test: Mouse heterotopic cardiac transplant model; type: in vivo; conditions: oral administration, 25 mg/kg/day for 14 days, starting at transplantation
Text: In the mouse heterotopic cardiac transplant model across full histocompatibility barriers (BALB/c->C57BL/6 or B6/129), graft survival is typically limited to 7.3 ± 0.4 days (mean ± SD, […]) (see for example in Hancock WW, Sayegh MH, Zheng XG, Peach R, Linsley PS, Turka LA. Costimulatory function and expression of CD40-ligand, CD80 and CD86 or in vascularized murine cardiac allograft rejection. Proc Natl Acad Sci (USA) 93, 1996, 13967-13972; and Hancock W W, Buelow R, Sayegh MH, Turka LA. Antibody-induced transplant arteriosclerosis is prevented by graft expression of antioxidant and anti-apoptotic genes. Nature Med 4, 1998, 1392-1396).
The effects of oral administration of the compounds according to examples 49 and 60 were tested using 25 mg/kg/day for 14 days, starting at transplantation in said animal model. Whereas grafts in animals receiving the carrier, methylcellulose, rejected by 7 days (6.7 ± 0.8), grafts in compound 49-treated mice survived around 15 days (15.3 ± 0.6), and grafts in those given compound 60 survived for 20 days (20 ± 1). Current immunosuppressive therapies used in transplantation have limited efficacy and/or considerable toxicity.

IC50 (IκBα-kinase complex)	Compound	graft survival [1]
400 nM	CC(=O)c1nccc2c1[nH]c1cc(Br)ccc12 [Example 2, 1-acetyl-7-bromo-β-carboline]	
200 nM	Brc1ccc2c3ccncc3n(Br)c2c1 [Example 8, 7,9-dibromo-β - carboline hydrochloride]	
1000 nM	N#Cc1ccc2c(c1)[nH]c1cnccc12 [Example 5, 7-cyano-β-carboline]	
	7-chloro-9-(4-fluorobenzoylamino)-β-carboline trifluoroacetate [Example 49]	15.3 ± 0.6 days
800 nM	Nn1c2cnccc2c2ccc(Cl)cc21 [Example 15, 9-amino-7-chloro-β-carboline]	
800 nM	FC(F)(F)c1ccc2c(c1)[nH]c1cnccc12 [Example 42, 7-trifluoromethyl-β-carboline]	
2200 nM	Oc1nccc2c1[nH]c1cc(C(F)(F)F)ccc12 [Example 41, 1-hydroxy-7-trifluoromethyl-β-carboline]	
4000 nM	O=[N+]([O-])n1c2cnccc2c2ccc(Cl)cc21 [Example 14, 7-chloro-9-nitro-β-carboline]	
500 nM	CC(=O)c1nccc2c1[nH]c1cc(Cl)ccc12 [Example 13, 1-acetyl-7-chloro-β - carboline]	
200 nM	Clc1ccc2c3ccncc3n(Cl)c2c1 [Example 9, 7,9-dichloro-β-carboline]	
	O=C(Nc1cc(Cl)cc2c1[nH]c1cnccc12)c1cccnc1 [Example 60, N-(6-Chloro-9H-β-carbolin-8-yl)-nicotinamide]	20 ± 1 days
3000 nM	O=[N+]([O-])c1ccc2c(c1)[nH]c1cnccc12 [Example 6, 7-nitro-β-carboline hydrochloride]	

Compound	IC50 (IκBα-kinase complex)	graft survival [1]
7-chloro-9-(methylamino)-β-carboline trifluoroacetate [Example 43]	1000 nM	
O=C(O)c1ccc2c(c1)[nH]c1cnccc12 [Example 7, 7-carboxy-β-carboline trifluoroacetat]	65000 nM	
Cn1ccc2c3cccc(O)c3nc-2c1 [Example 23, 8-hydroxy-2-methyl-β-carboline]	22000 nM	
7-chloro-9-(Acetyl-methylamino)-β-carboline trifluoroacetate [Example 48]	4000 nM	
CC(C)c1ccc2c(c1)[nH]c1cnccc12 [Example 4, 7-isopropyl-β -carboline hydrochloride]	2500 nM	
COc1ccc2c(c1)[nH]c1c(C)nccc12 [Example 35, 7-methoxy-1-methyl-β - carboline]	3500 nM	
COc1ccc2c(c1)[nH]c1cnccc12 [Example 30, 7-methoxy-β - carboline]	5200 nM	
Fc1ccc2c(c1)[nH]c1cnccc12 [Example 3, 7-fluoro-β-carboline]	1000 nM	
Fc1c(Cl)ccc2c1[nH]c1cnccc12 [Example 34, 7-chloro-8-fluoro-β - carboline]	1000 nM	

— patent publication EP1209158A1, “Substituted beta-carbolines” (Aventis Pharma Deutschland GmbH, priority 2000, dated 2002)
